Where a SMILES comes first, the peptide text is derived from it.
Assays:
46BR.1N fibroblasts = assay: XTT proliferation assay, fibroblasts; format: cell-based, human; conditions: for increase in proliferation by fibrils compared to control (XTT): fibrillated form, 10 µL of fibrils (50 µg/mL), 48 h, three independent experiments; for stimulation of proliferation (XTT), in words / inhibition of proliferation (XTT), in words: non-fibrillated peptide, 48 and 72 h; for inhibition of proliferation (XTT), in words: up to 25 µg/mL
Method: Immortalized human HaCaT [69, 70] keratinocytes (DKFZ, Heidelberg, Germany) and the human dermal fibroblast cell line 46BR.1N (ECACC, Sigma Aldrich, St. Louis, MO, USA) were used in the study. Cells were routinely grown in culture flasks (growth surface area 25 cm^2) in Dulbecco’s modified Eagle medium (DMEM, Sigma Aldrich, St. Louis, MO, USA), with 4500 mg/L of glucose, 584 mg/L of L-glutamine, sodium pyruvate, and sodium bicarbonate, supplemented with 10% FBS and 100 units/mL of penicillin and 100 μg/mL of streptomycin (Sigma Aldrich, St. Louis, MO, USA), under a humidified atmosphere with 5% CO2 at 37 °C. Medium was changed every 2–3 days.
Lactate dehydrogenase (LDH) activity in cell culture supernatants (Takara, Japan, cat. No. MK401) was measured to determine the cytotoxicity of the tested compounds, and the XTT assay was used to evaluate their effect on cell proliferation. Both tests were performed as previously described according to manufacturers’ instructions. Briefly, cells were seeded into 96-well plates, at a density of 5000 cells per well, in DMEM supplemented with 10% FBS. After 24 h the medium was exchanged for serum-free DMEM containing appropriate concentrations of the tested compounds. Supernatants for LDH analysis were collected after 48 h of incubation. The XTT assay was performed after 48 and 72 h of incubation.
For the analysis of the effect of the peptide fibrils on skin cells, the experiment was performed as described, but the cells were stimulated with 10 µL of the fibrils (50 µg/mL) and incubated for 48 h, when the LDH and XTT assay were then performed.

[1] = Thioflavin T fluorescence assay; format: physicochemical; conditions: 1.0 mg/mL in PBS pH 7.4, 37 °C, orbital shaking; ThT excitation 420 nm, emission 482 nm
Method: All peptides were dissolved in Eppendorf Low Retention Tubes in 1.0 mL of PBS pH 7.4. The concentration of the solutions of peptides was 1.0 mg/mL. The peptides were incubated at 37 °C with constant orbital shaking. Aliquots for the evaluation of the fibrillization process were taken before incubation and after 1, 2, 3, 6, 14, and 21 days or only after 7 days, depending on the experiments.
Ten microliters of peptide solution incubated under fibrillization conditions (see Fibril preparation) were mixed with 10 µL of 1.5 mM ThT in water and 90 µL of PBS pH 7.4. The fluorescence was measured on a Tecan Infinite 200Pro (Tecan Group Ltd., Männedorf, Switzerland) spectrofluorometer in 96-well plates (Costar Black®), with excitation wavelength set at 420 nm and emission in the range of 455 to 600 nm.

[2] = Peptide stability in human plasma (TCA assay); format: in vitro ADME; conditions: human plasma (EDTA), 37 °C, 300 rpm, TCA 3% precipitation, RP-HPLC UV 223 nm, peak area relative to 0 min, at least triplicates, read-out: peptide loss in human plasma relative to the initial concentration
Method: Peptide stability tests were performed according to a TCA stability assay based on the method used by Nguyen et al.. Peptides were dissolved in water, mixed with human plasma* to a final concentration of 1.0 mg/mL, and incubated at 37 °C with agitation (300 rpm, Thermomixer, Eppendorf AG, Hamburg, Germany). After 0, 1, 2, 3, 6 and 24 h, 80 μL of the solution was taken and mixed with 15% TCA to obtain a final concentration of 3% (v/v). The samples were incubated in ice for 10 min and centrifuged for 10 min (12,000 rpm, Microfuge 16, Beckman Coulter, Brea, CA, USA). Supernatants were analyzed by RP-HPLC on column using a linear gradient of acetonitrile (5–100% over 15 min) with detection at 223 nm. Peptides were quantified by their peak areas relative to the initial peak areas (0 min). All stability tests were performed at least in triplicates. As control samples peptides dissolved only in water under the same conditions were used. To additionally assess the changes in the incubated samples (peptide degradation) mass spectrometry analysis was used. LC-MS experiments were performed using ESI-IT-TOF (Shimadzu, Kyoto, Japan).
* Blood was collected from healthy anonymous donors and EDTA was then used as an anticoagulant. The procedure was approved by the Independent Bioethics Commission for Research of the Medical University of Gdańsk (NKBBN/387/2014).

[3] = biological target: T1, human neutrophil elastase (Homo sapiens, UniProt P08246); assay: Incubation with neutrophil elastase (release of active sequence); format: in vitro ADME; conditions: non-fibrillated peptide 1.0 mM, 0.1 M Tris HCl, 500 mM NaCl, 0.05% Triton X-100, 20 mM CaCl2, pH 7.5; enzyme 150 nM; 30 min, 37 °C; RP-UHPLC (PDA) and LC-MS
T1 construct: purchased Sigma Aldrich
T1 sequence (P08246 30-267): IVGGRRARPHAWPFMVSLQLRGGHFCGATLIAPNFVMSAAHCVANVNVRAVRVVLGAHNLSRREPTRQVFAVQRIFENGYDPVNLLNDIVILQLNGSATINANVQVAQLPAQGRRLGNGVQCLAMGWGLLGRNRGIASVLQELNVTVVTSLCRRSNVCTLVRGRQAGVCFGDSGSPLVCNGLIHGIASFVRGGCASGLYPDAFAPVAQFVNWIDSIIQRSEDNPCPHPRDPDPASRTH
Method: An enzymatic stability study was performed using the human neutrophil elastase enzyme (Sigma Aldrich, St. Louis, MO, USA). The peptides were dissolved in a buffer (with composition: 0.1 M Tris HCl, 500 mM NaCl, 0.05% Triton X-100, 20 mM CaCl2, pH 7.5), to a final concentration 1.0 mM. The fibrils formed in the aggregation process were dissolved in PBS at pH 7.4 to a concentration of 1 mg/mL. The enzyme was added to the peptide/fibril solution to a concentration of 150 nM and incubated for 30 min (peptides) or 60 min (fibrils), at 37 °C, with agitation. A 10% aqueous TFA solution was added to the reaction mixture to stop the digestion. The progress of the reaction was monitored by RP-UHPLC with a PDA (Photo Diode Array) detector on a Kinetex C8 column (2.6 μm, 100 Å 2.6 × 100 mm, Phenomenex, Torrance, CA, USA), at a gradient of 0–50% B for 15 min, and by LC-MS.

[4] = Circular dichroism over incubation; format: physicochemical; conditions: 1.0 mg/mL in PBS pH 7.4, 37 °C with agitation, up to 14 days; centrifuged clear solution, far-UV 195-250 nm
Method: Circular dichroism spectra were recorded on a Jasco J-815 spectropolarimeter (Jasco, Victoria, BC, Canada). Far-UV spectra (195–250 nm) were registered for all peptides dissolved in PBS pH 7.4 at a concentration of 1.0 mg/mL and incubated at 37 °C with agitation. Spectra were recorded before and after 1,2, 3, 7, 10 and 14 days of incubation. All spectra were corrected for the buffer signal. The CD spectra were recorded three times, using a 0.2 mm cell.

metabolised at 24 h, 1 mg/mL [2] [%]	Degradation Yes/No by human neutrophil elastase [3]	secondary structure by CD [4]	Compound	increase in proliferation by fibrils compared to control (XTT) (46BR.1N fibroblasts)	stimulation of proliferation (XTT), in words (46BR.1N fibroblasts)	inhibition of proliferation (XTT), in words (46BR.1N fibroblasts)	time course of ThT fluorescence increase (fibrillization) [1]
20	Yes	disordered structure	CC[C@H](C)[C@H](NC(=O)CNC(=O)[C@H](C)NC(=O)[C@H](CCC(N)=O)NC(=O)CNC(=O)CNC(=O)CNC(=O)[C@@H](NC(=O)[C@@H]1CCCN1C(=O)[C@H](C)NC(=O)[C@H](C)NC(=O)CNC(=O)CNC(=O)CNC(=O)[C@H](CCCCN)NC(=O)[C@H](Cc1c[nH]cn1)NC(=O)CNC(C)=O)C(C)C)C(=O)N[C@H](C(=O)N[C@H](C(N)=O)C(C)C)C(C)C [FC-GHK] (Ac-GHKGGGAAPVGGGQAGIVV-NH2)	about 10%	stimulated proliferation of both tested cell lines at concentrations of 0.01–10 µg/L	slight inhibition of the proliferation of skin cells after 72 h stimulation	effective sample fibrilization during the first two days of incubation
20	Yes	disordered structure	CC[C@H](C)[C@H](NC(=O)CNC(=O)[C@H](C)NC(=O)[C@H](CCC(N)=O)NC(=O)CNC(=O)CNC(=O)CNC(=O)[C@@H](NC(=O)[C@@H]1CCCN1C(=O)[C@H](C)NC(=O)[C@H](C)NC(=O)CNC(=O)CNC(=O)CNC(=O)[C@H](CCCCN)NC(=O)[C@H](Cc1c[nH]cn1)NC(=O)CNC(=O)[C@H](CCCCN)NC(C)=O)C(C)C)C(=O)N[C@H](C(=O)N[C@H](C(N)=O)C(C)C)C(C)C [FC-KGHK] (Ac-KGHKGGGAAPVGGGQAGIVV-NH2)	~20%	strongest stimulation was observed for 46BR.1N fibroblasts in concentrations of 0.1–10 µg/mL after 72 h of incubation	did not inhibit the proliferation of skin cells	required at least three days of incubation
